Biological target: T1, human JAK3 kinase domain (Homo sapiens, UniProt P52333)
T1 construct: attached to the N-terminal of the 796-1124 (C-terminal) fragment of the human JAK3 protein; His-tag (N); purchased Carna Biosciences, Inc. (Kobe, Japan); host or cells: baculovirus expression system
Test: JAK3 inhibition test
Assay type: biochemical
Details: purified human JAK3 kinase domain; Biotin-Lyn-Substrate-2, 20 μM ATP in substrate solution; absorbance at 450 nm; read-out: IC50 (JAK3 inhibitory activity)
Method: The JAK3 inhibition test was performed as described below according to the method of Okimoto et al.
Purified human JAK3 kinase domain was purchased from Carna Biosciences, Inc. (Kobe, Japan). This is obtained as described below. His-tag (41 kDa) was attached to the N-terminal of the 796-1124 (C-terminal) fragment of the human JAK3 protein (accession number #NM_000215), expressed using baculovirus expression system, and then purified using Ni-NTA affinity column chromatography.
After incubation at ambient temperature for one hour, the plate was washed with a cleaning buffer (50 mM Tris-HCl pH 7.5, 150 mM NaCl, 0.02% Tween 20), and a blocking buffer (a cleaning buffer containing 0.1% bovine serum albumin) was added to the plate. After incubation at ambient temperature for 30 minutes, the blocking buffer was removed, and an HRP-PY-20 solution (obtained by diluting HRP-PY-20 solution with the blocking buffer 500 times) was added. After incubation at ambient temperature for 30 minutes, the plate was washed four times, and a TMB substrate solution (Sigma) was added to the plate. After incubation at ambient temperature for four minutes, 1M sulfuric acid was added to stop the reaction. Enzyme activity was measured as absorbance at 450 nm. The efficacy of the test compound as a JAK3 inhibitor was expressed as an IC50 value.

T1 sequence (P52333 796-1124): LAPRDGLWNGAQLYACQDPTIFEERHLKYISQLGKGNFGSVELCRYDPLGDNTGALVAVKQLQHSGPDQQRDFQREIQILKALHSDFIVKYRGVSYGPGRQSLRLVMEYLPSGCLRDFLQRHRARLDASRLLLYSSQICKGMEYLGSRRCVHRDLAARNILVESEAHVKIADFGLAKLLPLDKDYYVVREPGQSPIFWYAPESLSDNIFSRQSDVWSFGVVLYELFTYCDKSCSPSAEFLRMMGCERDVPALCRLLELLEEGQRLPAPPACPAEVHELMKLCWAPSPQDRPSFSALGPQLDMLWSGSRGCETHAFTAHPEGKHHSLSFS

`COCCNC(=O)C(=O)Nc1nn([C@H]2C3CC4CC2C[C@@](O)(C4)C3)c2c1cnc1[nH]ccc12` [Example 32, cis-N-{1-[(1R,2R,3S,5s)-5-hydroxyadamantan-2-yl]-1,6-dihydropyrazolo[3,4-d]pyrrolo[2,3-b]pyridine-3-yl}-N′-(2-methoxyethyl)ethanediamide] and `CNC(=O)C(=O)Nc1nn([C@H]2[C@@H]3CC4C[C@H]2C[C@@](O)(C4)C3)c2c1cnc1[nH]ccc12` [Example 33, cis-N-{1-[(1R,2R,3S,5s)-5-hydroxyadamantan-2-yl]-1,6-dihydropyrazolo[3,4-d]pyrrolo[2,3-b]pyridine-3-yl}-N′-methylethanediamide] are within 1.5-fold of each other in IC50: 1.9 nM for the first, 2.1 nM for the second.

Compared with `NC(=O)c1cnc2[nH]ccc2c1N[C@@H]1C[C@H]2CC[C@@H]1C2` [Example 133], `O=C(CO)c1cnc2[nH]ccc2c1N[C@H]1C2CC3CC1C[C@@](O)(C3)C2` [Example 379] is 3.7-fold lower in IC50: 4.4 nM for the first, 1.2 nM for the second.

Compared with `OCc1noc(-c2cnc3[nH]ccc3c2N[C@H]2C3CC4CC2C[C@@](O)(C4)C3)n1` [Example 484], `O[C@]12CC3C[C@H](C1)[C@H](Nc1c(-c4nnco4)cnc4[nH]ccc14)[C@@H](C3)C2` (relative stereo) [Example 29, rel-(1s,3R,4R,5S)-4-{[5-(1,3,4-oxazole-2-yl)-1H-pyrrolo[2,3-b]pyridine-4-yl]amino}adamantan-1-ol] is 7.4-fold higher in IC50: 0.31 nM for the first, 2.3 nM for the second.

Compared with `N#CCCOC12CC3CC(C1)C(n1[nH]c(=O)c4cnc5[nH]ccc5c41)C(C3)C2` (centres unmarked) [Example 498], `N#CCCOC12CC3CC(C1)C(n1c(=O)[nH]c4cnc5[nH]ccc5c41)C(C3)C2` (centres unmarked) [Example 405] is 2-fold lower in IC50: 1.3 nM for the first, 0.65 nM for the second. The second is the more potent here.

Going from `Nc1nnc(-c2cnc3[nH]ccc3c2N[C@H]2C3CC4CC2C[C@@](O)(C4)C3)s1` [Example 34, (1s,4r)-4-{[5-(5-amino-1,3,4-thiadiazole-2-yl)-1H-pyrrolo[2,3-b]pyridine-4-yl]amino}adamantan-1-ol] to `N#CC12CC3CC(C1)C(Nc1c(C(N)=O)cnc4[nH]cnc14)C(C3)C2` (centres unmarked) [Example 426], the IC50 rises from 0.17 nM to 2.3 nM (14-fold). The first is the more potent here.

Compared with `CO[C@H]1CC[C@H](NC(=O)C(=O)Nc2nn([C@H]3[C@@H]4CC5C[C@H]3C[C@@](O)(C5)C4)c3c2cnc2[nH]ccc23)CC1` [Example 434], `CN(CC#N)C(=O)C12CC3CC(C1)C(n1c(=O)[nH]c4cnc5[nH]ccc5c41)C(C3)C2` (centres unmarked) [Example 384] is 3.1-fold lower in IC50: 0.86 nM for the first, 0.28 nM for the second. The second is the more potent here.

First: N#Cc1ccc(N2[C@@H]3CC[C@H]2C[C@H](Nc2c(C(N)=O)cnc4[nH]ccc24)C3)nn1 [Example 543]
Second: N#Cc1ccc(N2[C@@H]3CC[C@H]2C[C@H](Nc2c(C(N)=O)cnc4[nH]ccc24)C3)nc1 [Example 143]
The IC50 of the first is 2.1-fold lower: 0.33 nM for the first, 0.69 nM for the second.

Reference: patent US7879844B2, “Heterocyclic janus kinase 3 inhibitors” (Astellas Pharma Inc., priority 2005, dated 2011)
